This is an account of results in US7951942B2, “Crystals of phenylalanine derivatives and production methods thereof” (Ajinomoto Co., Inc., priority 2003, dated 2011).

The structures appear in SMILES notation.

Data set [1] in a line: Water adsorption of the crystals (vapor adsorption isotherm). It is filed as physicochemical. Conditions: 25° C. The protocol:
The Measuring Method of the Water Adsorption of the Crystals (Creation of the Vapor Adsorption Isotherm)
• (1) The measuring method of water adsorption amount and conditions
100 mg of each of the above obtained α-type, γ-type and ε-type crystals were weighed and vacuum dried at 50° C. overnight. Then, under the constant temperature of 25° C., the water adsorption amount of the crystals was determined with a full automatic vapor adsorption measuring apparatus (BELSORP-18, BEL Japan, Inc.) (Mitsuiki et al., J. Agric. Food Chem., vol. 46, no. 9, pp. 3528-3534 (1998)). • (2) The measurement results

Data set [2] is described as follows: Temperature changes of the powder X-ray diffraction patterns (crystal transition, T-G curves). It is filed as physicochemical. Conditions: from T-G curves (FIG. 10). The protocol: Measurement of the Temperature Changes of the Powder X-Ray Diffraction Patterns of the α-Type, γ-Type, ε-Type, and η-Type Crystals
• (1) The measuring method and conditions
The measurement was conducted in the same conditions as those of the above measurement of the powder X-ray diffraction patterns.

With `COC(=O)[C@H](Cc1ccc(-n2c(=O)c3cc(N(C)C)ccc3n(C)c2=O)cc1)NC(=O)c1c(Cl)cccc1Cl` [ε-type crystal], in data set [1] (listed as ε-type), the “water adsorption (in words)” value was “particularly low water adsorption”.

Turning to `COC(=O)[C@H](Cc1ccc(-n2c(=O)c3cc(N(C)C)ccc3n(C)c2=O)cc1)NC(=O)c1c(Cl)cccc1Cl` [θ-type crystal], in data set [2] (high temperature range), the “thermodynamic stability in high temperature range” value was “stably exists”.

Regarding `COC(=O)[C@H](Cc1ccc(-n2c(=O)c3cc(N(C)C)ccc3n(C)c2=O)cc1)NC(=O)c1c(Cl)cccc1Cl` [γ-type crystal], the “water adsorption (in words)” value in data set [1] (listed as γ-type) is on record as “particularly low water adsorption”.

On to `COC(=O)[C@H](Cc1ccc(-n2c(=O)c3cc(N(C)C)ccc3n(C)c2=O)cc1)NC(=O)c1c(Cl)cccc1Cl` [α-type crystal], for which the “order of thermodynamic stability of crystal forms at room temperature” value in data set [2] (room temperature) is “α-type>η-type>γ-type>ε-type>θ-type”. In addition, the “water adsorption (in words)” value in data set [1] (listed as α-type) is given as “low water adsorption”.
